Structures can show the parent of a compound that is named as a salt.

As to `Cc1nc(C)c(-c2[nH]nc3c2C(=O)c2c(NC(=O)NN4CCOCC4)cccc2-3)s1` (as salt: TFA) [Example 2, 3-(2,4-dimethylthiazol-5-yl)-5-(morpholinocarbamoylamino)indeno[1,2-c]pyrazol-4-one], the melting point is > 300 °C.

In turn, `Cc1nc(C)c(-c2[nH]nc3c2C(=O)c2c(NC(=O)NN4CCN(C)CC4)cccc2-3)s1` (as salt: hydrochloride) came in with a melting point of 278 °C.

The record behind these values is US6706718B2, “3-(2,4-dimethylthiazol-5-yl)indeno[1,2-c]pyrazol-4-one derivatives and their uses” (Bristol-Myers Squibb Company, priority 2000, dated 2004).
